Literature values, collected in article PMC8091910 (Proteins, 2019).

Experiments:
[1] = test system: pancreatic cancer cell (RWP1); settings: human peptide library screen

For “RTLSQLYCSYGPLT [C-terminal MUS81 peptide]”, which “reduction of cell viability” value [1] is on record?
Its value is “significantly reduced cell viability”.

And the “binding to EME1” value (EME1)?
Its value is “binds to EME1”.

And the “disruption / inhibition of MUS81–EME1 complex” value (MUS81–EME1 complex)?
Its value is “disrupting the MUS81–EME1 complex”.

What about the “reduction of cell viability in cancer cell lines” value (cancer cell lines) of the same sequence?
The value was “reducing cell viability in cancer cell lines”.
